Key:
Assay in all cases: Test B preemergence/postemergence greenhouse plant response rating 0 to 10
chickweed = type: in vivo, Stellaria media; conditions: for Plant response rating, Chickweed: 0 to 10 scale
How it was run: (§1)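 Planted seeds are treated preemergence with compound dissolved in a non-phytotoxic solvent, while postemergence applications go onto plants of two to eighteen cm. Plants stay in the greenhouse twelve to sixteen days and are then rated visually relative to controls.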

corn = type: in vivo, Zea mays; conditions: for Plant response rating, Corn: 0 to 10 scale
How it was run: as §1

crabgrass = type: in vivo, Digitaria spp.; conditions: for Plant response rating, Crabgrass: 0 to 10 scale
How it was run: as §1

morningglory = type: in vivo, Ipomoea hederacea; conditions: 0 to 10 scale
How it was run: as §1

rape = type: in vivo, Brassica napus; conditions: 0 to 10 scale
How it was run: as §1

sorghum = type: in vivo, Sorghum bicolor; conditions: 0 to 10 scale
How it was run: as §1

soybean = type: in vivo, Glycine max; conditions: 0 to 10 scale
How it was run: as §1

wheat = type: in vivo, Triticum aestivum; conditions: 0 to 10 scale
How it was run: as §1

wild oat = type: in vivo, Avena fatua; conditions: 0 to 10 scale
How it was run: as §1

purple nutsedge = type: in vivo, Cyperus rotundus; conditions: 0 to 10 scale
How it was run: as §1

| SMILES | Plant response rating, Chickweed (chickweed; PREEMERGENCE, Rate 50 g/ha) | Plant response rating, Chickweed (chickweed; Rate 200 g/ha, PREEMERGENCE) | Plant response rating (0 to 10 scale), Corn (corn; POSTEMERGENCE, Rate 50 g/ha) | Plant response rating, Corn (corn; POSTEMERGENCE, Rate 200 g/ha) | Plant response rating, Corn (corn; PREEMERGENCE, Rate 50 g/ha) | Plant response rating, Corn (corn; Rate 200 g/ha, PREEMERGENCE) | Plant response rating (0 to 10 scale), Crabgrass (crabgrass; POSTEMERGENCE, Rate 50 g/ha) | Plant response rating, Crabgrass (crabgrass; POSTEMERGENCE, Rate 200 g/ha) | Plant response rating, Crabgrass (crabgrass; PREEMERGENCE, Rate 50 g/ha) | Plant response rating, Crabgrass (crabgrass; Rate 200 g/ha, PREEMERGENCE) | Plant response rating, Morningglory (morningglory; POSTEMERGENCE, Rate 50 g/ha) | Plant response rating, Morningglory (morningglory; POSTEMERGENCE, Rate 200 g/ha) | Plant response rating, Morningglory (morningglory; PREEMERGENCE, Rate 50 g/ha) | Plant response rating, Morningglory (morningglory; Rate 200 g/ha, PREEMERGENCE) | Plant response rating, Rape (rape; POSTEMERGENCE, Rate 50 g/ha) | Plant response rating, Rape (rape; POSTEMERGENCE, Rate 200 g/ha) | Plant response rating, Rape (rape; PREEMERGENCE, Rate 50 g/ha) | Plant response rating, Rape (rape; Rate 200 g/ha, PREEMERGENCE) | Plant response rating, Sorghum (sorghum; POSTEMERGENCE, Rate 50 g/ha) | Plant response rating, Sorghum (sorghum; POSTEMERGENCE, Rate 200 g/ha) | further results |
| --- | --- | --- | --- | --- | --- | --- | --- | --- | --- | --- | --- | --- | --- | --- | --- | --- | --- | --- | --- | --- | --- |
| CCS(=O)(=O)Oc1cc(-c2nn3c(c2Cl)CCCC3)c(F)cc1Cl [Compound 25] | 0 | 9 | 3 | 6 | 0 | 0 | 3 | 2 | 5 | 7 | 8 | 10 | 1 | 5 | 10 | 10 | 0 | 9 | 4 | 5 | Plant response rating, Sorghum (sorghum; PREEMERGENCE, Rate 50 g/ha): 0; Plant response rating, Sorghum (sorghum; Rate 200 g/ha, PREEMERGENCE): 2; Plant response rating, Soybean (soybean; POSTEMERGENCE, Rate 50 g/ha): 8; Plant response rating, Soybean (soybean; POSTEMERGENCE, Rate 200 g/ha): 4; Plant response rating, Soybean (soybean; PREEMERGENCE, Rate 50 g/ha): 0; Plant response rating, Soybean (soybean; Rate 200 g/ha, PREEMERGENCE): 0; Plant response rating, Wheat (wheat; POSTEMERGENCE, Rate 50 g/ha): 3; Plant response rating, Wheat (wheat; POSTEMERGENCE, Rate 200 g/ha): 4; Plant response rating, Wheat (wheat; PREEMERGENCE, Rate 50 g/ha): 0; Plant response rating, Wheat (wheat; Rate 200 g/ha, PREEMERGENCE): 2; Plant response rating, Wild oat (wild oat; POSTEMERGENCE, Rate 50 g/ha): 3; Plant response rating, Wild oat (wild oat; POSTEMERGENCE, Rate 200 g/ha): 4; Plant response rating, Wild oat (wild oat; Rate 200 g/ha, PREEMERGENCE): 4; Plant response rating, Nutsedge (purple nutsedge; POSTEMERGENCE, Rate 50 g/ha): 2; Plant response rating, Nutsedge (purple nutsedge; POSTEMERGENCE, Rate 200 g/ha): 8; Plant response rating, Nutsedge (purple nutsedge; PREEMERGENCE, Rate 50 g/ha): 0; Plant response rating, Nutsedge (purple nutsedge; Rate 200 g/ha, PREEMERGENCE): 0 |
| CC(C)Oc1cc(-c2nn3c(c2Cl)CCCC3)c(F)cc1Cl [Compound 21] | 2 | 7 | 5 | 6 | 0 | 1 | 2 | 6 | 2 | 8 | 10 | 9 | 2 | 2 | 6 | 10 | 3 | 8 | 5 | 6 | Plant response rating (0 to 10 scale), Chickweed (chickweed; POSTEMERGENCE, Rate 50 g/ha): 8; Plant response rating, Chickweed (chickweed; POSTEMERGENCE, Rate 200 g/ha): 7; Plant response rating, Sorghum (sorghum; PREEMERGENCE, Rate 50 g/ha): 0; Plant response rating, Sorghum (sorghum; Rate 200 g/ha, PREEMERGENCE): 2; Plant response rating, Soybean (soybean; POSTEMERGENCE, Rate 50 g/ha): 9; Plant response rating, Soybean (soybean; POSTEMERGENCE, Rate 200 g/ha): 9; Plant response rating, Soybean (soybean; PREEMERGENCE, Rate 50 g/ha): 0; Plant response rating, Soybean (soybean; Rate 200 g/ha, PREEMERGENCE): 2; Plant response rating, Wheat (wheat; POSTEMERGENCE, Rate 50 g/ha): 3; Plant response rating, Wheat (wheat; POSTEMERGENCE, Rate 200 g/ha): 8; Plant response rating, Wheat (wheat; PREEMERGENCE, Rate 50 g/ha): 3; Plant response rating, Wheat (wheat; Rate 200 g/ha, PREEMERGENCE): 2; Plant response rating, Wild oat (wild oat; POSTEMERGENCE, Rate 50 g/ha): 4; Plant response rating, Wild oat (wild oat; POSTEMERGENCE, Rate 200 g/ha): 6; Plant response rating, Wild oat (wild oat; Rate 200 g/ha, PREEMERGENCE): 6; Plant response rating, Nutsedge (purple nutsedge; POSTEMERGENCE, Rate 50 g/ha): 1; Plant response rating, Nutsedge (purple nutsedge; POSTEMERGENCE, Rate 200 g/ha): 3; Plant response rating, Nutsedge (purple nutsedge; PREEMERGENCE, Rate 50 g/ha): 0; Plant response rating, Nutsedge (purple nutsedge; Rate 200 g/ha, PREEMERGENCE): 0 |
| Clc1ccc(-c2nc3n(c2Cl)CCC=C3)c(Cl)c1 [Compound 1] | 0 | 0 | 2 | 2 | 0 | 0 | 2 | 3 | 0 | 0 | 6 | 7 | 0 | 0 | 1 | 3 | 0 | 0 | 4 | 4 | Plant response rating (0 to 10 scale), Chickweed (chickweed; POSTEMERGENCE, Rate 50 g/ha): 0; Plant response rating, Chickweed (chickweed; POSTEMERGENCE, Rate 200 g/ha): 2; Plant response rating, Sorghum (sorghum; PREEMERGENCE, Rate 50 g/ha): 0; Plant response rating, Sorghum (sorghum; Rate 200 g/ha, PREEMERGENCE): 0; Plant response rating, Soybean (soybean; POSTEMERGENCE, Rate 50 g/ha): 4; Plant response rating, Soybean (soybean; POSTEMERGENCE, Rate 200 g/ha): 4; Plant response rating, Soybean (soybean; PREEMERGENCE, Rate 50 g/ha): 0; Plant response rating, Soybean (soybean; Rate 200 g/ha, PREEMERGENCE): 0; Plant response rating, Wheat (wheat; POSTEMERGENCE, Rate 50 g/ha): 1; Plant response rating, Wheat (wheat; POSTEMERGENCE, Rate 200 g/ha): 2; Plant response rating, Wheat (wheat; PREEMERGENCE, Rate 50 g/ha): 0; Plant response rating, Wheat (wheat; Rate 200 g/ha, PREEMERGENCE): 0; Plant response rating, Wild oat (wild oat; POSTEMERGENCE, Rate 50 g/ha): 2; Plant response rating, Wild oat (wild oat; POSTEMERGENCE, Rate 200 g/ha): 2; Plant response rating, Wild oat (wild oat; Rate 200 g/ha, PREEMERGENCE): 0; Plant response rating, Nutsedge (purple nutsedge; POSTEMERGENCE, Rate 50 g/ha): 0; Plant response rating, Nutsedge (purple nutsedge; POSTEMERGENCE, Rate 200 g/ha): 0; Plant response rating, Nutsedge (purple nutsedge; Rate 200 g/ha, PREEMERGENCE): 0 |

From patent US6358885B1, “Substituted phenylheterocyclic herbicides” (Mississippi State University, priority 1992, dated 2002)
